One compound from patent US20250282802A1, “P[…] AND METHODS” (priority 2020, published 2025) can be followed below.

Each structure is given as a SMILES string. Where two headings read alike, the source gives them in different places.

One assay has as its system onion bulbs. The experiment in a line: Onion bioactivity assay (center rot). The assay is classed as in vivo, Allium cepa (onion). As to conditions: 30° C. The protocol: Onion bioactivity assays. Yellow onions purchased from a local market were surface sterilized in a laminar flow biosafety hood as follows. First, the outermost layers with any damage or browning were removed and discarded, followed by soaking for 10 minutes in 10% bleach. The onions were then rinsed three times with sterile dH2O, followed by soaking in 70% EtOH for an additional 10 minutes, then rinsed four times with sterile dH2O. The onions were left in a biosafety laminar flow hood until water and ethanol were completely evaporated. For testing virulence of microbial strains, the onions were inoculated by stabbing with a previously sterilized wooden toothpick dipped into a bacterial cell suspension (1×10^3 CFU/mL in 1×PBS buffer). Chemical complementation studies were performed by addition of 100 μL of filter-sterilized sample into the hole created by the toothpick during inoculation. For testing bioactivity of crude and purified chemical samples in the absence of bacteria, holes were punched in sterilized onions using sterile toothpicks followed by addition of 100 μL of a filter-sterilized sample. Following inoculation and/or treatment with filter-sterilized compounds, the onions were placed in zip-lock plastic bags and incubated at 30° C. in the dark for the indicated number of days. […]

Assay [1] relates to Enterococcus faecalis ATCC 19433. The experiment in a line: Antibacterial bioassay (MIC), Enterococcus faecalis. The class given is cell-based. As to conditions: ATCC19433, Mueller-Hinton 2 medium, CLSI, read-out: MIC, Rich medium. The protocol:
(§1) Antibacterial bioassays. Susceptibility testing for the ESKAPE pathogens and Salmonella enterica LT2 was performed using a Kirby-Bauer method as outlined by the Clinical and Laboratory Standards Institute (CLSI). For rich media bioassays, Mueller Hinton Broth 2 (MH-2, Sigma-Aldrich, 90922) was used for all strains except 1% BHI was supplemented for Enterococcus faecalis ATCC 19433. For minimal media bioassays, glucose-MOPS minimal medium was used. Briefly, overnight bacterial cultures were sub-cultured and inoculated into 5 mL top agar (0.7% agar) for final concentration of 5×10^5 CFU/mL. Then, 20 μL of a compound 2-fold dilution series (200, 100, 50, 25, 12.5, 6.25 μM in water) was spotted on 6 mm diameter blank paper discs (BD BBL™ 231039). Control discs received 20 μL of 50 mg/mL kanamycin. Plates were incubated at 35° C. for 20-24 hours. […] Sensitivity of the IPTG-inducible phosphonate uptake strain WM6242 to pantaphos was tested using a disk diffusion assay. Plates containing growth medium were overlayed with 5 mL of top agar (0.7% agar) inoculated with 100 μL (OD600=0.8) of the phosphonate-specific E. coli indicator strain (WM6242) with or without addition of 1 mM IPTG. WM6242 is engineered with an IPTG-inducible, non-specific phosphonate uptake system (phnCDE). […]

A further assay relates to Escherichia coli WM6242. Description: Disk diffusion assay with phosphonate-specific bioassay strain E. coli WM6242. The class given is cell-based. Here is the method: Antibacterial bioassays. Susceptibility testing for the ESKAPE pathogens and Salmonella enterica LT2 was performed using a Kirby-Bauer method as outlined by the Clinical and Laboratory Standards Institute (CLSI). For rich media bioassays, Mueller Hinton Broth 2 (MH-2, Sigma-Aldrich, 90922) was used for all strains except 1% BHI was supplemented for Enterococcus faecalis ATCC 19433. For minimal media bioassays, glucose-MOPS minimal medium was used. Briefly, overnight bacterial cultures were sub-cultured and inoculated into 5 mL top agar (0.7% agar) for final concentration of 5×10^5 CFU/mL. Then, 20 μL of a compound 2-fold dilution series (200, 100, 50, 25, 12.5, 6.25 μM in water) was spotted on 6 mm diameter blank paper discs (BD BBL™ 231039). Control discs received 20 μL of 50 mg/mL kanamycin. Plates were incubated at 35° C. for 20-24 hours. […] Sensitivity of the IPTG-inducible phosphonate uptake strain WM6242 to pantaphos was tested using a disk diffusion assay. Plates containing growth medium were overlayed with 5 mL of top agar (0.7% agar) inoculated with 100 μL (OD600=0.8) of the phosphonate-specific E. coli indicator strain (WM6242) with or without addition of 1 mM IPTG. WM6242 is engineered with an IPTG-inducible, non-specific phosphonate uptake system (phnCDE). After the seeded overlay solidified, 6 mm paper disks were spotted with 10 μL of a dilution series (200, 100, 50, 25, 12.5, 6.25 μM in water) of pantaphos and applied to the plates that were then incubated at 37° C. for 24 hours. Phosphonate-specific activity was queried by comparing sensitivity to that of 200 μM kanamycin and 200 μM fosfomycin.
Background: In agar diffusion tests the substance spreads into inoculated agar from a disc or well.

Assay [2] has as its system HFF-1 (human fibroblast cells). The experiment in a line: Cell culture cytotoxicity screening (Alamar Blue), HFF-1. As to conditions: HFF-1, Alamar Blue, 72 hours. The assay is classed as cell-based. The protocol: (§2) Cell culture cytotoxicity screening. The compounds were evaluated for their ability to kill cancer cell lines in culture, using HOS (osteosarcoma); ES-2 (ovarian cancer); HCT 116 (colon cancer); A549 (lung carcinoma); and A172 (glioma) cells. Human skin fibroblast cells (HFF-1) were also assessed. Cells were seeded (3000 cells well^−1 for ES-2, HCT 116, A549 and A172; 4000 cells well^−1 for HFF-1 and 2500 cells well^−1 for HOS) in a 96-well plate and allowed to attach overnight. Cells were treated with pantaphos in water. The concentrations of the tested compounds were 5 nM to 100 μM (1% water final; 100 μl well^−1). Raptinal (50 μM) was used as a dead control. On each plate, five technical replicates per compound were performed. 72 hours post-treatment, cell viability was assessed using the Alamar Blue method (http://www.bio-rad-antibodies.com/measuring-cytotoxicity-proliferation-spectrophotometry-fluorescence-alamarBlue.html). Alamar Blue solution (10 μl of 440 μM resazurin in sterile 1×PBS) was added to each well, and the plate was incubated for 3-4 hrs. Conversion of Alamar Blue was measured with a plate reader (SpectraMax M3; Molecular Devices) by fluorescence (excitation wavelength: 555 nm; emission wavelength: 585 nm; cutoff 570 nm; autogain). Percentage death was determined by normalizing to water-treated cells and Raptinal-treated cells. […]
(The colour change of resazurin is a common sign of viable cells or microbes.)

Another assay has as its system Salmonella enterica LT2. The experiment in a line: Antibacterial bioassay (MIC), Salmonella enterica. As to conditions: CLSI. The class given is cell-based. The protocol:
as §1

Another assay concerns SK-ML-28 (melanoma). The experiment in a line: Cytotoxicity profiling (Alamar Blue), SK-ML-28. The assay is classed as cell-based. As to conditions: Homo sapiens; SK-ML-28, Alamar Blue, 72-hour treatment. Here is the method:
FIG. 8. Cytotoxicity of pantaphos across various cancer cell lines. Assays were conducted as described (mBio. 2021 Feb. 2; 12(1):e03402-20), using the Alamar Blue method with 72-hour treatment using Raptinal ([…]) as Dead cell control; n=3. Cell seeding densities: CT26 (colon carcinoma) 2000 c/w; HOS (osteosarcoma) 2500 c/w; ES-2 (ovarian carcinoma), HCT-116 (colorectal carcinoma), A-549 (lung carcinoma), A-172 (glioblastoma), D54 (glioblastoma), U87 (glioblastoma), T98G (glioblastoma), SK-ML-28 (melanoma), MCF-7 (breast cancer), AM38 (glioblastoma) and MDA-MB-231 (breast cancer) 3000 c/w; U118MG (malignant glioma) 4000 c/w; HepG2 (liver cancer) 8000 c/w. c/w=cells per well. […]
Cell culture cytotoxicity screening. The compounds were evaluated for their ability to kill cancer cell lines in culture, using HOS (osteosarcoma); ES-2 (ovarian cancer); HCT 116 (colon cancer); A549 (lung carcinoma); and A172 (glioma) cells. Human skin fibroblast cells (HFF-1) were also assessed. […] 72 hours post-treatment, cell viability was assessed using the Alamar Blue method (http://www.bio-rad-antibodies.com/measuring-cytotoxicity-proliferation-spectrophotometry-fluorescence-alamarBlue.html). […] Conversion of Alamar Blue was measured with a plate reader (SpectraMax M3; Molecular Devices) by fluorescence (excitation wavelength: 555 nm; emission wavelength: 585 nm; cutoff 570 nm; autogain). […]

Assay [3] relates to Pseudomonas aeruginosa PAO1. Description: Antibacterial bioassay (MIC), Pseudomonas aeruginosa. The class given is cell-based. As to conditions: CLSI. The protocol: as §1
The test system of another assay is AM38 (glioblastoma). The experiment in a line: Cytotoxicity profiling (Alamar Blue), AM38. The assay is classed as cell-based, human. The protocol:
FIG. 8. Cytotoxicity of pantaphos across various cancer cell lines. Assays were conducted as described (mBio. 2021 Feb. 2; 12(1):e03402-20), using the Alamar Blue method with 72-hour treatment using Raptinal ([…]) as Dead cell control; n=3. Cell seeding densities: CT26 (colon carcinoma) 2000 c/w; HOS (osteosarcoma) 2500 c/w; ES-2 (ovarian carcinoma), HCT-116 (colorectal carcinoma), A-549 (lung carcinoma), A-172 (glioblastoma), D54 (glioblastoma), U87 (glioblastoma), T98G (glioblastoma), SK-ML-28 (melanoma), MCF-7 (breast cancer), AM38 (glioblastoma) and MDA-MB-231 (breast cancer) 3000 c/w; U118MG (malignant glioma) 4000 c/w; HepG2 (liver cancer) 8000 c/w. c/w=cells per well. IC50 and Emax values shown in Table 6 were extracted from the raw data plotted in FIG. 8.
as §2, with “Alamar Blue solution (10 μl of 440 μM resazurin in sterile 1×PBS) was added to each well, and the plate was incubated for 3-4 hrs.” left out

Where [4] appears, read: Mueller-Hinton 2 medium, read-out: MIC, Rich medium.
Setting [5] is: glucose-MOPS minimal medium, read-out: MIC, Minimal medium.

Usually MIC stands for the lowest concentration that inhibits growth of the organism. Usually IC50 stands for the point on the concentration scale where inhibition reaches its midpoint. One may read the Emax as the size of the effect at its maximum, as opposed to the concentration needed. As to `O=C(O)/C=C(\C(=O)O)C(O)P(=O)(O)O` (stereo not drawn) [pantaphos, 2-(hydroxy(phosphono)methyl)maleate], in the assay with onion bulbs (co-inoculated with hvr mutant), the “onion center rot on co-inoculation with the P. ananatis hvr deletion mutant (chemical complementation)” value was “resulted in onion rot”. In the assay on onion bulbs (surface sterilized onion bulbs, 100 μL filter-sterilized sample, no bacteria), the “onion rot lesions after injection in the absence of bacteria” value is on record as “severe onion rot lesions”. Moreover, the MIC in assay [1] is above 200 µM; in the assay on Escherichia coli WM6242 (+IPTG, Mueller-Hinton 2 medium, read-out: MIC, Rich medium) it was above 200 µM; in the assay on Escherichia coli WM6242 (+IPTG, glucose-MOPS minimal medium, read-out: MIC, Minimal medium), above 200 µM; in the assay on Escherichia coli WM6242 (Escherichia coli, WM6242, −IPTG, Mueller-Hinton 2 medium, read-out: MIC, Rich medium) it was above 200 µM; in the assay with Escherichia coli WM6242 (Escherichia coli, WM6242, −IPTG, glucose-MOPS minimal medium, read-out: MIC, Minimal medium), above 200 µM; with Salmonella enterica LT2 (setting [4]), above 200 µM. For the same compound, the MIC (in the assay on Salmonella enterica LT2 (setting [5]); in assay [3] (setting [4]); in assay [3] (setting [5])) was above 200 µM in each case. Moreover, the “sensitivity of the strain to pantaphos, in words” value in the assay with Escherichia coli WM6242 (with or without IPTG induction) is “insensitive”. For the same compound, the IC50 was 6.69 ± 0.29 µM in assay [2] and 3.97 ± 1.01 µM with AM38 (glioblastoma) (Homo sapiens, AM-38, AM38, Alamar Blue, 72-hour treatment (Table 6)). Moreover, the Emax in assay [2] (read-out: Emax = percentage cell death (converted)) was 85%; in the assay on SK-ML-28 (melanoma), 47 to 51%; in the assay on AM38 (glioblastoma) (Homo sapiens, AM-38, AM38, Alamar Blue, 72-hour treatment), 74 to 78%. Further, the “sensitivity of the cell line to the compound, in words” value with AM38 (glioblastoma) (AM38) is recorded as “sensitive”.
